In patent US7820623B2 (priority 2006, dated 2010):
pIC50: −log10 of the molar value. Bridge positions count the residues as written; N and C are the ends. Square brackets hold non-standard residues; d marks the D form. Peptide text beside a SMILES is read from it. 1Nal = N[C@@H](Cc1cccc2ccccc12)C(=O)O

Key:
[1] = test system: thapsigargin-induced IFN-g production in human whole blood; assay type: cell-based; conditions: read-out: Analogue Activity (IC50) WB/IFNg
[2] = test system: thapsigargin-induced IL-2 production in human whole blood; conditions: read-out: Analogue Activity (IC50) WB/IL-2

Compound	pIC50 [1]	pIC50 [2]
CC[C@H](C)[C@@H]1NC(=O)[C@H](CCCCN)NC(=O)[C@@H](NC(=O)[C@H](CCCCN)NC(=O)[C@@H](NC(=O)[C@H](CCCNC(=N)N)NC(=O)[C@@H](NC(=O)[C@@H](NC(=O)[C@@H](NC(=O)CN)C(C)C)[C@@H](C)CC)[C@@H](C)CC)C(C)C)CSSC[C@@H]2NC(=O)[C@H](CCCCN)NC(=O)CNC(=O)[C@H](Cc3ccccc3)NC(=O)[C@H](CCCNC(=N)N)NC(=O)[C@H](CCSC)NC(=O)CNC(=O)[C@H](C)NC(=O)[C@H](CCCCN)NC(=O)[C@H](CCCCN)NC(=O)[C@@H]3CSSC[C@@H](C(=O)N[C@H](C(=O)N4CCC[C@H]4C(=O)N[C@@H](CCCCN)C(=O)O)[C@@H](C)O)NC(=O)[C@H](Cc4c[nH]cn4)NC(=O)[C@H](CSSC[C@H](NC(=O)[C@H](CCC(N)=O)NC(=O)[C@H](CCCNC(=N)N)NC(=O)[C@H](CO)NC1=O)C(=O)N[C@@H](CC(C)C)C(=O)N[C@@H](CCC(=O)O)C(=O)N1CCC[C@H]1C(=O)N3)NC(=O)[C@H](CCCCN)NC(=O)CNC(=O)[C@H](CC(N)=O)NC(=O)[C@H](CCSC)NC2=O [N5R] (H-GVIIRVKCKISRQCLEPCKKAGMRFGKCMNGKCHCTPK-OH; disulfide 8-28, 14-33, 18-35)	9.92	10.02
CC[C@H](C)[C@@H]1NC(=O)[C@H](CCCCN)NC(=O)[C@@H](NC(=O)[C@H](CCCCN)NC(=O)[C@@H](NC(=O)[C@H](CC(N)=O)NC(=O)[C@@H](NC(=O)[C@@H](NC(=O)[C@@H](NC(=O)CN)C(C)C)[C@@H](C)CC)[C@@H](C)CC)C(C)C)CSSC[C@@H]2NC(=O)[C@H](CCCCN)NC(=O)CNC(=O)[C@H](Cc3ccccc3)NC(=O)[C@H](CCCNC(=N)N)NC(=O)[C@H](CCSC)NC(=O)CNC(=O)[C@H](C)NC(=O)[C@H](CCCCN)NC(=O)[C@H](CCCCN)NC(=O)[C@@H]3CSSC[C@@H](C(=O)N[C@H](C(=O)N4CCC[C@H]4C(=O)N[C@@H](CCCCN)C(=O)O)[C@@H](C)O)NC(=O)[C@H](Cc4c[nH]cn4)NC(=O)[C@H](CSSC[C@H](NC(=O)[C@H](CCC(N)=O)NC(=O)[C@H](CCCNC(=N)N)NC(=O)[C@H](CO)NC1=O)C(=O)N[C@@H](CC(C)C)C(=O)N[C@@H](CCC(=O)O)C(=O)N1CCC[C@H]1C(=O)N3)NC(=O)[C@H](CCCCN)NC(=O)CNC(=O)[C@H](CCCNC(=N)N)NC(=O)[C@H](CCSC)NC2=O [N30R] (H-GVIINVKCKISRQCLEPCKKAGMRFGKCMRGKCHCTPK-OH; disulfide 8-28, 14-33, 18-35)	9.35	9.39
CC[C@H](C)[C@@H]1NC(=O)[C@H](CCCCN)NC(=O)[C@@H](NC(=O)[C@H](CCCCN)NC(=O)[C@@H](NC(=O)[C@H](CC(N)=O)NC(=O)[C@@H](NC(=O)[C@@H](NC(=O)[C@@H](NC(=O)CN)C(C)C)[C@@H](C)CC)[C@@H](C)CC)C(C)C)CSSC[C@@H]2NC(=O)[C@H](CCCCN)NC(=O)CNC(=O)[C@H](Cc3ccccc3)NC(=O)[C@H](CCCNC(=N)N)NC(=O)[C@H](CCSC)NC(=O)CNC(=O)[C@H](C)NC(=O)[C@H](CCCCN)NC(=O)[C@H](CCCCN)NC(=O)[C@@H]3CSSC[C@@H](C(=O)N[C@H](C(=O)N4CCC[C@H]4C(=O)N[C@@H](CCCCN)C(=O)O)[C@@H](C)O)NC(=O)[C@H](Cc4c[nH]cn4)NC(=O)[C@H](CSSC[C@H](NC(=O)[C@H](CCC(N)=O)NC(=O)[C@H](CCCNC(=N)N)NC(=O)[C@H](CO)NC1=O)C(=O)N[C@@H](CC(C)C)C(=O)N[C@@H](CCC(=O)O)C(=O)N[C@@H](C)C(=O)N3)NC(=O)[C@H](CCCCN)NC(=O)CNC(=O)[C@H](CC(N)=O)NC(=O)[C@H](CCSC)NC2=O [P17A] (H-GVIINVKCKISRQCLEACKKAGMRFGKCMNGKCHCTPK-OH; disulfide 8-28, 14-33, 18-35)	9.76	9.76
CC[C@H](C)[C@@H]1NC(=O)[C@H](CCCCN)NC(=O)[C@@H](NC(=O)[C@H](CCCCN)NC(=O)[C@@H](NC(=O)[C@H](CC(N)=O)NC(=O)[C@@H](NC(=O)[C@@H](NC(=O)[C@@H](NC(=O)CN)C(C)C)[C@@H](C)CC)[C@@H](C)CC)C(C)C)CSSC[C@@H]2NC(=O)[C@H](CCCCN)NC(=O)CNC(=O)[C@H](Cc3ccccc3)NC(=O)[C@H](CCCNC(=N)N)NC(=O)[C@H](CCSC)NC(=O)CNC(=O)[C@H](C)NC(=O)[C@H](CCCCN)NC(=O)[C@H](CCCCN)NC(=O)[C@@H]3CSSC[C@@H](C(=O)N[C@H](C(=O)N4CCC[C@H]4C(=O)N[C@@H](CCCCN)C(=O)O)[C@@H](C)O)NC(=O)[C@H](Cc4c[nH]cn4)NC(=O)[C@H](CSSC[C@H](NC(=O)[C@H](CCC(N)=O)NC(=O)[C@H](CCCNC(=N)N)NC(=O)[C@H](CO)NC1=O)C(=O)N[C@@H](CC(C)C)C(=O)N[C@@H](CCC(=O)O)C(=O)N[C@@H](CCC(=O)O)C(=O)N3)NC(=O)[C@H](CCCCN)NC(=O)CNC(=O)[C@H](CC(N)=O)NC(=O)[C@H](CCSC)NC2=O [P17E] (H-GVIINVKCKISRQCLEECKKAGMRFGKCMNGKCHCTPK-OH; disulfide 8-28, 14-33, 18-35)	9.02	9.28
CC[C@H](C)[C@@H]1NC(=O)[C@H](CCCCN)NC(=O)[C@@H](NC(=O)[C@H](CCCCN)NC(=O)[C@@H](NC(=O)[C@H](CC(N)=O)NC(=O)[C@@H](NC(=O)[C@@H](NC(=O)[C@@H](NC(=O)CN)C(C)C)[C@@H](C)CC)[C@@H](C)CC)C(C)C)CSSC[C@@H]2NC(=O)[C@H](CCCCN)NC(=O)CNC(=O)[C@H](Cc3ccccc3)NC(=O)[C@H](CCCNC(=N)N)NC(=O)[C@H](CCSC)NC(=O)CNC(=O)[C@H](C)NC(=O)[C@H](CCCCN)NC(=O)[C@H](CCCCN)NC(=O)[C@@H]3CSSC[C@@H](C(=O)N[C@H](C(=O)N4CCC[C@H]4C(=O)N[C@@H](CCCCN)C(=O)O)[C@@H](C)O)NC(=O)[C@H](Cc4c[nH]cn4)NC(=O)[C@H](CSSC[C@H](NC(=O)[C@H](CCC(N)=O)NC(=O)[C@H](CCCNC(=N)N)NC(=O)[C@H](CO)NC1=O)C(=O)N[C@@H](CC(C)C)C(=O)N[C@@H](CCC(=O)O)C(=O)N[C@@H](Cc1cccc4ccccc14)C(=O)N3)NC(=O)[C@H](CCCCN)NC(=O)CNC(=O)[C@H](CC(N)=O)NC(=O)[C@H](CCSC)NC2=O [P17Nal] (H-GVIINVKCKISRQCLE[1Nal]CKKAGMRFGKCMNGKCHCTPK-OH; disulfide 8-28, 14-33, 18-35)	9.45	9.71
CC[C@H](C)[C@@H]1NC(=O)[C@H](CCCCN)NC(=O)[C@@H](NC(=O)[C@H](CCCCN)NC(=O)[C@@H](NC(=O)[C@H](CC(N)=O)NC(=O)[C@@H](NC(=O)[C@@H](NC(=O)[C@@H](NC(=O)CN)C(C)C)[C@@H](C)CC)[C@@H](C)CC)C(C)C)CSSC[C@@H]2NC(=O)[C@H](CCCCN)NC(=O)CNC(=O)[C@H](Cc3ccccc3)NC(=O)[C@H](CCCNC(=N)N)NC(=O)[C@H](CCSC)NC(=O)CNC(=O)[C@H](C)NC(=O)[C@H](CCCCN)NC(=O)[C@H](CCCCN)NC(=O)[C@@H]3CSSC[C@@H](C(=O)N[C@H](C(=O)N4CCC[C@H]4C(=O)N[C@@H](CCCCN)C(=O)O)[C@@H](C)O)NC(=O)[C@H](Cc4c[nH]cn4)NC(=O)[C@H](CSSC[C@H](NC(=O)[C@H](CCC(N)=O)NC(=O)[C@H](CCCNC(=N)N)NC(=O)[C@H](CO)NC1=O)C(=O)N[C@@H](CC(C)C)C(=O)N[C@@H](CCC(=O)O)C(=O)N[C@@H](CCCNC(=N)N)C(=O)N3)NC(=O)[C@H](CCCCN)NC(=O)CNC(=O)[C@H](CC(N)=O)NC(=O)[C@H](CCSC)NC2=O [P17R] (H-GVIINVKCKISRQCLERCKKAGMRFGKCMNGKCHCTPK-OH; disulfide 8-28, 14-33, 18-35)	9.45	9.69
CC[C@H](C)[C@@H]1NC(=O)[C@H](CCCCN)NC(=O)[C@@H](NC(=O)[C@H](CCCCN)NC(=O)[C@@H](NC(=O)[C@H](CC(N)=O)NC(=O)[C@@H](NC(=O)[C@@H](NC(=O)[C@@H](NC(=O)CN)C(C)C)[C@@H](C)CC)[C@@H](C)CC)C(C)C)CSSC[C@@H]2NC(=O)[C@H](CCCCN)NC(=O)CNC(=O)[C@H](Cc3ccccc3)NC(=O)[C@H](CCCNC(=N)N)NC(=O)[C@H](CCSC)NC(=O)CNC(=O)[C@H](C)NC(=O)[C@H](CCCCN)NC(=O)[C@H](CCCCN)NC(=O)[C@@H]3CSSC[C@@H](C(=O)N[C@H](C(=O)N[C@@H](Cc4cccc5ccccc45)C(=O)N[C@@H](CCCCN)C(=O)O)[C@@H](C)O)NC(=O)[C@H](Cc4c[nH]cn4)NC(=O)[C@H](CSSC[C@H](NC(=O)[C@H](CCC(N)=O)NC(=O)[C@H](CCCNC(=N)N)NC(=O)[C@H](CO)NC1=O)C(=O)N[C@@H](CC(C)C)C(=O)N[C@@H](CCC(=O)O)C(=O)N1CCC[C@H]1C(=O)N3)NC(=O)[C@H](CCCCN)NC(=O)CNC(=O)[C@H](CC(N)=O)NC(=O)[C@H](CCSC)NC2=O [P37Nal] (H-GVIINVKCKISRQCLEPCKKAGMRFGKCMNGKCHCT[1Nal]K-OH; disulfide 8-28, 14-33, 18-35)	8.52	8.75
CC[C@H](C)[C@@H]1NC(=O)[C@H](CCCCN)NC(=O)[C@@H](NC(=O)[C@H](CCCCN)NC(=O)[C@@H](NC(=O)[C@H](CC(N)=O)NC(=O)[C@@H](NC(=O)[C@@H](NC(=O)[C@@H](NC(=O)CN)C(C)C)[C@@H](C)CC)[C@@H](C)CC)C(C)C)CSSC[C@@H]2NC(=O)[C@H](CCCCN)NC(=O)CNC(=O)[C@H](Cc3ccccc3)NC(=O)[C@H](CCCNC(=N)N)NC(=O)[C@H](CCSC)NC(=O)CNC(=O)[C@H](C)NC(=O)[C@H](CCCCN)NC(=O)[C@H](CCCCN)NC(=O)[C@@H]3CSSC[C@@H](C(=O)N[C@H](C(=O)N[C@@H](CCCNC(=N)N)C(=O)N[C@@H](CCCCN)C(=O)O)[C@@H](C)O)NC(=O)[C@H](Cc4c[nH]cn4)NC(=O)[C@H](CSSC[C@H](NC(=O)[C@H](CCC(N)=O)NC(=O)[C@H](CCCNC(=N)N)NC(=O)[C@H](CO)NC1=O)C(=O)N[C@@H](CC(C)C)C(=O)N[C@@H](CCC(=O)O)C(=O)N1CCC[C@H]1C(=O)N3)NC(=O)[C@H](CCCCN)NC(=O)CNC(=O)[C@H](CC(N)=O)NC(=O)[C@H](CCSC)NC2=O [P37R] (H-GVIINVKCKISRQCLEPCKKAGMRFGKCMNGKCHCTRK-OH; disulfide 8-28, 14-33, 18-35)	9.60	9.64
